Assay results published in patent publication US6924301B1, “Composition for treating or preventing arrhythmia” (Shionogi & Co., Ltd., priority 1999, dated 2005).

Biological target: T1, cPLA2 (Homo sapiens, UniProt P47712)
T1 sequence (P47712 1-749): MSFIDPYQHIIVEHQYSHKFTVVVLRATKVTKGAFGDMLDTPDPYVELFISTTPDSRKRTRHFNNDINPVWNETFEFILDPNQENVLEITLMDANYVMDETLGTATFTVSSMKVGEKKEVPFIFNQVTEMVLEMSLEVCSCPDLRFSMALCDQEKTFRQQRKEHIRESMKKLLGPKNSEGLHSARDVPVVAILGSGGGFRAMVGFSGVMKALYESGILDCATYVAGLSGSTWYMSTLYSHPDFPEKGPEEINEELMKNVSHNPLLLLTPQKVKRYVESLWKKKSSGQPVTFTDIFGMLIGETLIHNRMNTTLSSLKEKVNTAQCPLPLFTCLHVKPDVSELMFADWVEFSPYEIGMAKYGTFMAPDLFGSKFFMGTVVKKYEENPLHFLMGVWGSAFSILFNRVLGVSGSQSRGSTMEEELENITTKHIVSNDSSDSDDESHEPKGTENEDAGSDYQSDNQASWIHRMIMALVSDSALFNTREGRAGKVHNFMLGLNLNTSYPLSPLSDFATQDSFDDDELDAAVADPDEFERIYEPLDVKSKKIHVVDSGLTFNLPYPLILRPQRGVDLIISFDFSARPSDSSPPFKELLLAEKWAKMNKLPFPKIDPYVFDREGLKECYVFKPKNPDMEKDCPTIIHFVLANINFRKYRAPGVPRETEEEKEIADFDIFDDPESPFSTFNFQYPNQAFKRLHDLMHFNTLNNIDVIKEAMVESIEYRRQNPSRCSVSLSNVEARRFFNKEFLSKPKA
Experiment: cPLA2 inhibitory activity
Assay type: biochemical
Conditions: 0.25 h; Table 10; same assay
Description: The compounds of the present invention were tested for the cPLA2 inhibitory activity according to the method disclosed in […]. Roberts, […], and J. E. Putnam, J. Biol. Chem., 1991, 266, 5268-5272 as outlined below. […] The reaction mixture includes 50 mM HEPES buffer (pH 7.5), 1 mM calcium chloride, 150 mM sodium chloride, 0.1 mg/ml bovine serum albumin, and 1.7 mM dithiothreitol. To the reaction mixture was added the compound of the present invention and the substrate solution. The reaction was allowed to start by adding an enzyme and continued for 15 min at 37° C. The fatty acids released by the reaction were extracted by the method described in V. P. Dole, and H. Meinertz, J. Biol. Chem., 1960, 235, 2595-2599 and its radiation activity was measured on a liquid scintillation counter. Control was obtained by conducting the experiment in the same manner except that a compound of the present invention was not added.

O=C1NC(=O)C(Cc2ccc(C(=O)NCC3CC(SC(c4ccccc4)(c4ccccc4)c4ccccc4)CN3C(=O)c3ccccc3C(=O)c3ccc(F)cc3F)cc2)S1 (stereo not shown) [Compound B-8]
IC60: 1.2 nM

O=C(C=Cc1ccc(C=C2SC(=O)NC2=O)cc1)NCC1CC(SC(c2ccccc2)(c2ccccc2)c2ccccc2)CN1C(=O)c1ccccc1C(=O)c1ccc(F)cc1F (stereo not shown) [Compound B-9]
IC60: 0.6 nM

O=C(C=Cc1ccc(C=C2SC(=O)NC2=O)cc1)NCC1CC(SCc2c(-c3ccccc3)cccc2-c2ccccc2)CN1C(=O)c1ccccc1C(=O)c1ccc(F)cc1F (stereo not shown) [Compound B-10]
IC60: 5.6 nM

COc1ccc(C(SC2CC(CNC(=O)C=Cc3ccc(C=C4SC(=O)NC4=O)cc3)N(C(=O)c3ccccc3C(=O)c3ccc(F)cc3F)C2)(c2ccccc2)c2ccccc2)cc1 (stereo not shown) [Compound B-11]
IC60: 1.2 nM

COc1ccc(C(SC2CC(CNC(=O)C=Cc3ccc(C=C4SC(=O)NC4=O)cc3)N(C(=O)c3ccccc3C(=O)c3ccc(F)cc3F)C2)(c2ccccc2)c2ccc(OC)cc2)cc1 (stereo not shown) [Compound B-12]
IC60: 2 nM

Cc1ccc(C(SC2CC(CNC(=O)C=Cc3ccc(C=C4SC(=O)NC4=O)cc3)N(C(=O)c3ccccc3C(=O)c3ccc(F)cc3F)C2)(c2ccccc2)c2ccccc2)cc1 (stereo not shown) [Compound B-13]
IC60: 2 nM

O=C(C=Cc1ccc(C=C2SC(=O)NC2=O)cc1)NCC1CC(SC(c2ccc(F)cc2)(c2ccc(F)cc2)c2ccc(F)cc2)CN1C(=O)c1ccccc1C(=O)c1ccc(F)cc1F (stereo not shown) [Compound B-14]
IC60: 1.2 nM

Cc1ccccc1C(SC1CC(CNC(=O)C=Cc2ccc(C=C3SC(=O)NC3=O)cc2)N(C(=O)c2ccccc2C(=O)c2ccc(F)cc2F)C1)(c1ccccc1)c1ccccc1 (stereo not shown) [Compound B-15]
IC60: 1.2 nM

Cc1cccc(C(SC2CC(CNC(=O)C=Cc3ccc(C=C4SC(=O)NC4=O)cc3)N(C(=O)c3ccccc3C(=O)c3ccc(F)cc3F)C2)(c2ccccc2)c2ccccc2)c1 (stereo not shown) [Compound B-16]
IC60: 1 nM

O=C(C=Cc1ccc(C=C2SC(=O)NC2=O)cc1)NCC1CC(SC(c2ccc(Cl)cc2)(c2ccc(Cl)cc2)c2ccc(Cl)cc2)CN1C(=O)c1ccccc1C(=O)c1ccc(F)cc1F (stereo not shown) [Compound B-17]
IC60: 0.63 nM

CC(C)c1cccc(C(SC2CC(CNC(=O)C=Cc3ccc(C=C4SC(=O)NC4=O)cc3)N(C(=O)c3ccccc3C(=O)c3ccc(F)cc3F)C2)(c2ccccc2)c2ccccc2)c1 (stereo not shown) [Compound B-18]
IC60: 0.26 nM

O=C(C=Cc1ccc(C=C2SC(=O)NC2=O)cc1)NCC1CC(SC(c2ccccc2)(c2ccccc2)c2cccs2)CN1C(=O)c1ccccc1C(=O)c1ccc(F)cc1F (stereo not shown) [Compound B-19]
IC60: 2.9 nM

O=C(C=Cc1ccc(CC2SC(=O)NC2=O)cc1)NCC1CC(SC(c2ccccc2)(c2ccccc2)c2ccccc2)CN1C(=O)c1ccccc1C(=O)c1ccc(F)cc1F (stereo not shown) [Compound B-20]
IC60: 1.4 nM

Cc1cccc(C(SC2CC(CNC(=O)C=Cc3ccc(C=C4SC(=O)NC4=O)cc3)N(C(=O)c3ccccc3C(=O)c3ccc(F)cc3F)C2)(c2ccccc2)c2cccc(C)c2)c1 (stereo not shown) [Compound B-21]
IC60: 0.27 nM

Cc1cc(C)cc(C(SC2CC(CNC(=O)C=Cc3ccc(C=C4SC(=O)NC4=O)cc3)N(C(=O)c3ccccc3C(=O)c3ccc(F)cc3F)C2)(c2ccccc2)c2ccccc2)c1 (stereo not shown) [Compound B-22]
IC60: 0.37 nM

O=C(C=Cc1ccc(C=C2SC(=O)NC2=O)cc1)NCC1CC(SC(c2ccccc2)(c2ccccc2)c2ccccc2F)CN1C(=O)c1ccccc1C(=O)c1ccc(F)cc1F (stereo not shown) [Compound B-23]
IC60: 0.52 nM

O=C(C=Cc1ccc(C=C2SC(=O)NC2=O)cc1)NCC1CC(SC(c2ccccc2)(c2ccccc2)c2cccc(F)c2)CN1C(=O)c1ccccc1C(=O)c1ccc(F)cc1F (stereo not shown) [Compound B-24]
IC60: 0.36 nM

O=C(C=Cc1ccc(C=C2SC(=O)NC2=O)cc1)NCC1CC(SC(c2ccccc2)(c2ccccc2)c2ccc(F)cc2)CN1C(=O)c1ccccc1C(=O)c1ccc(F)cc1F (stereo not shown) [Compound B-25]
IC60: 0.43 nM

O=C1NC(=O)/C(=C/c2ccc(C(=O)NC[C@@H]3C[C@@H](OCc4ccccc4-c4ccccc4)CN3C(=O)c3ccccc3C(=O)c3ccc(F)cc3F)s2)S1 [Compound C-1]
IC60: 24 nM
